The structures appear in SMILES notation.

The target of assay [1] is Mitogen-activated protein kinase 8 (Homo sapiens, UniProt P45983). The note with it: at 10 µM.
The target in assay [2] is T1, Eukaryotic translation initiation factor 2-alpha kinase 3 (Homo sapiens) (UniProt Q9NZJ5).
T1 sequence (whole entry): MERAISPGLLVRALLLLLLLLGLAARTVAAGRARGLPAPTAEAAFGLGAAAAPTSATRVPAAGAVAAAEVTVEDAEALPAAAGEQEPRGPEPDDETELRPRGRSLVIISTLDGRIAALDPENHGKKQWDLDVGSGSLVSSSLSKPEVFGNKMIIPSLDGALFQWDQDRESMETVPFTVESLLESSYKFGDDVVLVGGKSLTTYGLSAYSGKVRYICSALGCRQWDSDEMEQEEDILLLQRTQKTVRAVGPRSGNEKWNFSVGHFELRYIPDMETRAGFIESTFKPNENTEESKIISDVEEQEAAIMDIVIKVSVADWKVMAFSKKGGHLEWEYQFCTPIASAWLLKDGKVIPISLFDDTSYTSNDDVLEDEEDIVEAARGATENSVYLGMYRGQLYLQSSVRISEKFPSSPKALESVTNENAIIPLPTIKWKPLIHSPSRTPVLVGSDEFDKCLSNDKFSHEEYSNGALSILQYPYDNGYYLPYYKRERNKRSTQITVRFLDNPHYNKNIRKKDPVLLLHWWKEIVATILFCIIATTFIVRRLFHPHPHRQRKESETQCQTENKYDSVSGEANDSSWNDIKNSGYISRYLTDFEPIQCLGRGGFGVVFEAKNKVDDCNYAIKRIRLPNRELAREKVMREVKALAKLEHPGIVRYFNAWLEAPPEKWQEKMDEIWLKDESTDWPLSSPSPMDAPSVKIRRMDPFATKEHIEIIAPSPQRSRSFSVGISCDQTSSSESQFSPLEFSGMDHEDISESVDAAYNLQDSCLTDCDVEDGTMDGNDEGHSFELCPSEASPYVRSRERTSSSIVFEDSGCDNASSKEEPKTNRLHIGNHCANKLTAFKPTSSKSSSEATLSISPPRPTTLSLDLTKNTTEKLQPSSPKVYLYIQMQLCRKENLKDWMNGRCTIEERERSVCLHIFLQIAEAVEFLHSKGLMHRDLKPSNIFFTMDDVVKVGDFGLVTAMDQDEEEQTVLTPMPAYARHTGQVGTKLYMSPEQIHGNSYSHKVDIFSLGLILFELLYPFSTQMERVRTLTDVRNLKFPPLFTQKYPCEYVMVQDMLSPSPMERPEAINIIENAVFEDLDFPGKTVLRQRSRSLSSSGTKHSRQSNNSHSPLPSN
The assay can be described thus: Selectivity interaction (ProQinase) EUB0000171b EIF2AK3.

Assay [3] has as its target Ephrin type-A receptor 7 (Homo sapiens) (UniProt Q15375). The assay can be described thus: Selectivity interaction (Upstate Kinase Profiler service (Millipore)) EUB0000056c EPHA7. The note with it: at 1 µM.
For assay [4], the target named is Calcium/calmodulin-dependent protein kinase type II subunit delta (Homo sapiens) (UniProt Q13557). The assay can be described thus: Selectivity interaction (KinomeScan (DiscoverX)) EUB0001079a CAMK2D. The note with it: at 1 µM.
Chain of Calcium/calmodulin-dependent protein kinase type II subunit delta (Homo sapiens) (Q13557 whole entry): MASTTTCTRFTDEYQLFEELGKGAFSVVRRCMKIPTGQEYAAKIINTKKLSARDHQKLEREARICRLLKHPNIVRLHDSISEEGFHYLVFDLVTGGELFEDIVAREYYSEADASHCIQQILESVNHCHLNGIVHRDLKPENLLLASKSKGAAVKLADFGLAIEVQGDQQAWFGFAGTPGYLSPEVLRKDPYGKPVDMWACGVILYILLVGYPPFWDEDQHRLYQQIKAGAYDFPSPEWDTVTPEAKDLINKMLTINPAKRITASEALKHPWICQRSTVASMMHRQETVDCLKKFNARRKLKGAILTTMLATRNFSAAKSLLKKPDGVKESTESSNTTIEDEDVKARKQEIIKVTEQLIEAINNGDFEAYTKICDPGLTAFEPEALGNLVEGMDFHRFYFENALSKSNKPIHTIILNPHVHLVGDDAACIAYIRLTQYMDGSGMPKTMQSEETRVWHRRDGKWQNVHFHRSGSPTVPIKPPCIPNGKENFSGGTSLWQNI
Assay [5] addresses T2, Serine/threonine-protein kinase PLK4 (Homo sapiens) (UniProt O00444).
T2 sequence (whole entry): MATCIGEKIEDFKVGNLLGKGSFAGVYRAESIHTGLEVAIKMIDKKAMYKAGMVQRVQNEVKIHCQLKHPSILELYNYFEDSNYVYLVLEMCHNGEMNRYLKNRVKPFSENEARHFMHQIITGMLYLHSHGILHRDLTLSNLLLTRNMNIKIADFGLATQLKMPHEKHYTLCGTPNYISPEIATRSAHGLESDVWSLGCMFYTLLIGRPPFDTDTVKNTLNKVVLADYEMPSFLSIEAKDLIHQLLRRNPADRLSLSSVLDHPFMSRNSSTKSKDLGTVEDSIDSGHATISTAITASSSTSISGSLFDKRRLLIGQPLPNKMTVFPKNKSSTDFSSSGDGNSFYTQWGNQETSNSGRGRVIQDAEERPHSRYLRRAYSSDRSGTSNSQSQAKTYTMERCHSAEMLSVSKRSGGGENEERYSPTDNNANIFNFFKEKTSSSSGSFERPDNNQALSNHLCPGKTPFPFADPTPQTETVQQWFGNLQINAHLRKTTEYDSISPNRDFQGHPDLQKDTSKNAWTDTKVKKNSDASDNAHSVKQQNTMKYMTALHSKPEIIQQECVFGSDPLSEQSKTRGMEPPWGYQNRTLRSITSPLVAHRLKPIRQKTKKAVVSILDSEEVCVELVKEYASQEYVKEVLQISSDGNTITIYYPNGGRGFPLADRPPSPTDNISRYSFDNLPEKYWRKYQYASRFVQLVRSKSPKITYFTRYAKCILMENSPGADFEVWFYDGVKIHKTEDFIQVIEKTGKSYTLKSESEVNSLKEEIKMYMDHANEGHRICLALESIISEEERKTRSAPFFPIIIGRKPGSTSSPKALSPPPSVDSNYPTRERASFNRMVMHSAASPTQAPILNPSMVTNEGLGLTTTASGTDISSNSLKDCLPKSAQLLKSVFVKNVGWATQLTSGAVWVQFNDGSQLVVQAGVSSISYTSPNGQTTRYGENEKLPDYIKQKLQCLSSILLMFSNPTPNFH
The assay can be described thus: Selectivity interaction (KinomeScan (DiscoverX)) EUB0000229b PLK4. The conditions noted are these: at 10 µM.

Assay [6] has as its target T3, Serine/threonine-protein kinase STK11 (Homo sapiens) (UniProt Q15831).
T3 sequence (whole entry): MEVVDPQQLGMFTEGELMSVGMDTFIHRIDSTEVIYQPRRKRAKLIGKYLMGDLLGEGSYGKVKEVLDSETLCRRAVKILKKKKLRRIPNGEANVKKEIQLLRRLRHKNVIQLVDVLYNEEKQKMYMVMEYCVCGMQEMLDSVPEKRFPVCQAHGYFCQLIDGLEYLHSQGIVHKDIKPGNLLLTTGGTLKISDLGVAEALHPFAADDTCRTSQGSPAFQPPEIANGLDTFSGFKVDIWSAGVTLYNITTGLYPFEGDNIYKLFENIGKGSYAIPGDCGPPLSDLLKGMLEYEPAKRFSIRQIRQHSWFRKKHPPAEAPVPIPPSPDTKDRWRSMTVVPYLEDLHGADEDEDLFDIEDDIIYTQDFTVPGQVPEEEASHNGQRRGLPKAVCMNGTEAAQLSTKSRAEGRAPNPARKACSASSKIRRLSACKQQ
The assay can be described thus: Selectivity interaction (Kinase panel (KiNativ target engagement assay in Jurkat cells)) EUB0001635a STK11. Type of assay: cell-based. The conditions noted are these: Selectivity number of off-targets 0.0, Selectivity number of targets 233.0, Source Knowledge https://www.sciencedirect.com/science/article/pii/S2451945619300674?via%3Dihub, at 1 µM.

Chain of Ephrin type-A receptor 7 (Homo sapiens) (Q15375 28-998 limits assumed): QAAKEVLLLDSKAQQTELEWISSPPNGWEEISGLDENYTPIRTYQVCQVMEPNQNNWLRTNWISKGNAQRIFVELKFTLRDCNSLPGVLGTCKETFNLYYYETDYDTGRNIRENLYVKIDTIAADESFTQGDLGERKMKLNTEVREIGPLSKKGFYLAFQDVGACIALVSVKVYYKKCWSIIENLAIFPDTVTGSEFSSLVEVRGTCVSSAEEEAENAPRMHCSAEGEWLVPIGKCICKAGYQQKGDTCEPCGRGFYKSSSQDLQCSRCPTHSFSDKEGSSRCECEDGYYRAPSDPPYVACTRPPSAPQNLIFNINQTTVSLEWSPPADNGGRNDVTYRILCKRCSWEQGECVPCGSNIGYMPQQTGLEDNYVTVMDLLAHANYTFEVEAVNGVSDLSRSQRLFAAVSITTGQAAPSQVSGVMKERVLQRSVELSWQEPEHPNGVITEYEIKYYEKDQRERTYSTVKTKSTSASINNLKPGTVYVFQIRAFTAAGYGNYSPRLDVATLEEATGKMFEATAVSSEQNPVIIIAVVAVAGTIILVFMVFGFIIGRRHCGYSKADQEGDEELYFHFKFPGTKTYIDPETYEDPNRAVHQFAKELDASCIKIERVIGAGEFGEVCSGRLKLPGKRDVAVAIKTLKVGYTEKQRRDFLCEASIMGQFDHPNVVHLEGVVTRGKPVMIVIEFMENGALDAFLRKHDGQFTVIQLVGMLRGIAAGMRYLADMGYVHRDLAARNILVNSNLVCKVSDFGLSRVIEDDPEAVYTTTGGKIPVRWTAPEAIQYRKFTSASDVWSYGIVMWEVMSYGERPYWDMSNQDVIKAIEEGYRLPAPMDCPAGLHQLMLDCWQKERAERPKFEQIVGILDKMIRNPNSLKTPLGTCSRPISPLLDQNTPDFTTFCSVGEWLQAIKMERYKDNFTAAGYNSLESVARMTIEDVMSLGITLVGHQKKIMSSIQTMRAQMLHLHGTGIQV
Chain of Mitogen-activated protein kinase 8 (P45983 whole entry): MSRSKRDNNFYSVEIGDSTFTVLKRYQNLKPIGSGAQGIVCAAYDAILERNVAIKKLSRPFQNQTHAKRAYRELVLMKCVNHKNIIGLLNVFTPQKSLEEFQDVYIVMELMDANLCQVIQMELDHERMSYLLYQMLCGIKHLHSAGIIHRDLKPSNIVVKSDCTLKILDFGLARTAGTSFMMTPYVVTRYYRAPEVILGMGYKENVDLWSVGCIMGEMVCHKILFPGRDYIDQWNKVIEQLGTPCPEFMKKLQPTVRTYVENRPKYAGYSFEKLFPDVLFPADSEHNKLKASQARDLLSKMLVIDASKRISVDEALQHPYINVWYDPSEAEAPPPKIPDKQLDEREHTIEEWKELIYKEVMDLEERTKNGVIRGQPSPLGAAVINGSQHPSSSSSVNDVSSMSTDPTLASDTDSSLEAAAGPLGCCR

In the case of `Cc1cc([C@@H](C)Nc2ccccc2C(=O)O)c2nc(N3CCOCC3)cc(=O)n2c1` [AZD-6482], in assay [1], the % of control was 100%.

For `C=CC(=O)Nc1cccc(C(=O)Nc2ccc(Nc3cc(-c4[nH]c(SC)nc4C)ccn3)cc2)c1`, the % of control in assay [2] (at 1 µM) worked out at 92%; in assay [2] (at 5 µM) it was 97%.

Consider `Cc1ccc(-c2ccc3c(ccc4sc5c(c43)NC[C@@H](C)NC5=O)n2)cn1`, for which the % of inhibition in assay [3] was -5%.

Regarding `Nc1cnc(N2CCc3cc(S(=O)(=O)Nc4c(F)cc(Cl)cc4F)cc(N4CCCC4=O)c32)nc1` [TP-020n], the % of control in assay [4] was found to be 100%.

In assay [5], `COc1cc(N(C)c2ccnc3ccc(C(F)(F)F)cc23)cc(OC)c1OC` returned a % binding of 99%.

`C=CC(=O)Nc1ccc(C(=O)Nc2[nH]nc3c2CN(C(=O)N[C@H](CN(C)C)c2ccccc2)C3(C)C)cc1`: the % of engagement in assay [6] amounted to 11.1%.
